Experimental data reported in ChEMBL document CHEMBL5523684, “Development of a tetrahydroindazolone-based HDAC6 inhibitor with in-vivo anti-arthritic activity” (Bioorg Med Chem, 2024).
pIC50: −log10 of the molar value. Active and inactive are the calls of the source. The rule behind the calls is not given here.

Assays:
[1] = Bioavailability in mouse at 10 mg/kg, iv; format: ADME, organism-based; conditions: in vivo
[2] = Half life in monkey at 10 mg/kg, po; format: ADME, organism-based, Macaca mulatta; conditions: rhesus monkey, in vivo
[3] = Cmax in monkey at 10 mg/kg, po; format: ADME, organism-based, Macaca mulatta; conditions: rhesus monkey, in vivo
[4] = C0 in dog at 0.5 mg/kg, iv; format: ADME, organism-based, Canis lupus familiaris; conditions: in vivo
[5] = biological target: T1, Protein deacetylase HDAC6 (Homo sapiens) (UniProt Q9UBN7); experiment: Inhibition of HDAC6 in human HH cells assessed as induction of acetylated tubulin accumulation at 0.3 uM by Western blot analysis; format: cell-based
T1 sequence (whole entry): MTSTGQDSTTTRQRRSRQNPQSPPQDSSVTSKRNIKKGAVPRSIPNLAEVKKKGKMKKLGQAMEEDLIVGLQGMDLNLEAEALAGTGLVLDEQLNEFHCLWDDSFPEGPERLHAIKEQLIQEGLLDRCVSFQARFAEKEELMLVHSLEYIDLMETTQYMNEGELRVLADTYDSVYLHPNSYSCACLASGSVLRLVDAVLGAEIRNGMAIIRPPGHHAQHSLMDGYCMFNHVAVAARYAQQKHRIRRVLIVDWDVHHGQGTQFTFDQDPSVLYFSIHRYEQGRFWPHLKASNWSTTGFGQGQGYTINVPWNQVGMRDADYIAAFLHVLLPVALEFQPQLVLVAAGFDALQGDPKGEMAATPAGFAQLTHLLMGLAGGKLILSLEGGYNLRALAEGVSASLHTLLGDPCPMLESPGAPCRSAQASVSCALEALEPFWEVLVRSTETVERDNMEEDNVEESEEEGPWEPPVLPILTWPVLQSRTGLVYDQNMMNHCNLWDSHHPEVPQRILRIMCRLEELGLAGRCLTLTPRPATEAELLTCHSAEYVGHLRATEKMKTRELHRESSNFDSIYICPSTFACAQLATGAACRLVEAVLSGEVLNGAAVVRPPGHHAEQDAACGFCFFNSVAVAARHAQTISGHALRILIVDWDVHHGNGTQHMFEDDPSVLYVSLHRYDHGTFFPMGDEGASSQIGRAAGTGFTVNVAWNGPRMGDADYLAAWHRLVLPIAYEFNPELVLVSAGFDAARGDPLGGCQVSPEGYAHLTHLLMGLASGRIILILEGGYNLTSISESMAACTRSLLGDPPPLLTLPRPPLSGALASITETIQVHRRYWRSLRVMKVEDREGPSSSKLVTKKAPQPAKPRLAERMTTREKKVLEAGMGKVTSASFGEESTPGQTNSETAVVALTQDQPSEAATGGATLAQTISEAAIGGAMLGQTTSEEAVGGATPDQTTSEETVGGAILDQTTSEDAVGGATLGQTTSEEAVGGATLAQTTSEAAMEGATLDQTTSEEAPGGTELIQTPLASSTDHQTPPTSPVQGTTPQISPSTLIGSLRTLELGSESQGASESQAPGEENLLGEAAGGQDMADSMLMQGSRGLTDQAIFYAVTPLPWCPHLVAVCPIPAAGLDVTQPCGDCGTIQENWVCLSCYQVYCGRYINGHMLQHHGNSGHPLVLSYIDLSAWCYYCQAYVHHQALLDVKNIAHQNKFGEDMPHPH

THP-1 = experiment: Inhibition of TNF-alpha secretion in LPS-stimulated human THP-1 cells pretreated with compound for 24 hrs followed by LPS-induction and measured after 4 hrs by ELISA analysis; format: functional, cell-based; conditions: dose 0.3-10 µM
Histone deacetylase 9 = Histone deacetylase 9 (Homo sapiens, UniProt Q9UKV0); experiment: Inhibition of human recombinant HDAC9 using Boc-Lys(tri-fluoroacetyl)-AMC as substrate by fluorescence based analysis
Histone deacetylase 9, sequence (Q9UKV0 whole entry): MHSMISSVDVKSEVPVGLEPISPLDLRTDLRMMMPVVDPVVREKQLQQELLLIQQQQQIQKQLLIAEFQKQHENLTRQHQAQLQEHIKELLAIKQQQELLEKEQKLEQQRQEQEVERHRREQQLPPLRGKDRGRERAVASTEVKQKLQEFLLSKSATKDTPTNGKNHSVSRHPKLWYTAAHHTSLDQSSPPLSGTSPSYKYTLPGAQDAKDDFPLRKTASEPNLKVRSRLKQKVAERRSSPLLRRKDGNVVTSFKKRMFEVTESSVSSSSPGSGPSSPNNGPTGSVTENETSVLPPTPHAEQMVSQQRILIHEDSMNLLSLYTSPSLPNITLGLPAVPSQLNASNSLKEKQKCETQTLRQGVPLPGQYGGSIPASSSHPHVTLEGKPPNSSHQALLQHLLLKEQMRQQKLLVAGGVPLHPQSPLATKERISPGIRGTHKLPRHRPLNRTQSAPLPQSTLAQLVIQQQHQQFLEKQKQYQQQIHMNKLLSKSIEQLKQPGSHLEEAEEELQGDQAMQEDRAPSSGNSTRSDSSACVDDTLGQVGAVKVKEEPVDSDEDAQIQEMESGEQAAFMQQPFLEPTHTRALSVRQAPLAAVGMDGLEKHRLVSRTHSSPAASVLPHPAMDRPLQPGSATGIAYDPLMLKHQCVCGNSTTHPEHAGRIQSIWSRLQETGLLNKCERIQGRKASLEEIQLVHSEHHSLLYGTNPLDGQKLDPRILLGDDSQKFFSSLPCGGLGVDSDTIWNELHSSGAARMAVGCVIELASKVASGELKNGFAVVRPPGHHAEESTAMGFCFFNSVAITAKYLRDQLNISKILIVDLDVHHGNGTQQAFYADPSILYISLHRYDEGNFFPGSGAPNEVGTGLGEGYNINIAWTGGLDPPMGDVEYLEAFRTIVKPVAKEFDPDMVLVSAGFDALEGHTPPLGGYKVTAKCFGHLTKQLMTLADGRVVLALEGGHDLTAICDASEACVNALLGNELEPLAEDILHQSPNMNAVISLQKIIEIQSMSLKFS

SMILES | bioavailability [1] [%] | half-life [2] [min] | Cmax [3] [ng/mL] | C0 [4] [ng/mL] | inhibition [5] | inhibition (THP-1) | pIC50 (Histone deacetylase 9)
CC1(C)CC(=O)c2c(C(F)(F)F)nn(Cc3ccc(C(=O)NO)cc3)c2C1 | 19 | 57 | 137 | 2080 | Active | Dose-Dependent Effect | 
O=C(NO)c1ccc(Cn2c3c(c4ccccc42)C(=O)CCC3)cc1 |  |  |  |  |  |  | < 4.70
